Patent publication US20200239547A1, “ANTICANCER PEPTIDES” (IDP DISCOVERY PHARMA, S.L., priority 2017, published 2020)
pEC50: −log10 of the molar value. Starred links: 1 amine or outer side, 2 acyl side, 3 side chain; linkers in the order of their positions; H or OH if unused. Positions of bridges follow the written chain, without caps; N, C: chain ends. Non-standard residues stand in square brackets, D forms with d. Residues, ends and D or L forms follow the SMILES beside them. No end group written: not given here. ξ: configuration not given here. ξαMeNle(6-ylidene) = CC(CCCC=[*:3])(N[*:1])C(=O)[*:2]; X1 = CC(CCCCCCC=[*:3])(N[*:1])C(=O)[*:2]; R8 = C=CCCCCCC[C@@](C)(N)C(=O)O; S5 = C=CCCC[C@](C)(N)C(=O)O

Tests used:
[1] = system: SCLC cell lines; test: Viability assay, summary over SCLC cell lines; format: cell-based; conditions: summary in words of Table 3
Description: MCF-7 and NCl-H187 cells were seeded at a density of 5000 cells/well; NCl-H82 were seeded at a density of 2500 cells/well; HL-60, RPMI, U266 and NCl-H510A at 10000 cells/well in 100 μl of medium in 96 well plates. After 24 h, the compounds to be tested were added to calculate the dose/response curve at the starting concentration of 100 μM with serial dilutions (1:1). Controls are the untreated cells. Each experiment was performed in triplicate.
(§1) Cells were incubated during 48-72 h in incubator under CO2 atmosphere at 37° C. Cell viability was measured by means of MTT (3-(4,5-dimethylthiazol-2-yl)-2,5-diphenyltetrazolium bromide) assay, Alamar Blue® (Biosource DAL1100) and Hexosaminidase activity test, consecutively, following manufacturer instructions.
Data analysis was performed calculating the percentage of cell viability normalized vs. the values of negative control, which was considered equal to 100%. The dose/response curve was fitted through the sigmoidal equation dose-response (variable slope) and the […] values were calculated as follow: […]

[2] = system: U266, lymphoblast (myeloma)
Description: U266, lymphoblast (myeloma), ATCC® TIB196™
(§6) Cell line MCF-7 was cultured in incubator under CO2 (6%) at 37° C. in DMEM high glucose (Dulbecco's Modified Eagle Solution, Gibco-BRL 31966-21) medium with 10% fetal bovine serum inactivated (FBS) (Gibco-BRL 10106-169). Cell lines HL-60, RPMI and U266 were cultured in incubator at 37° C. in RPMI-1640 (Sigma R8758) medium with 10% of fetal bovine serum inactivated (FBS) and 2 mM glutamine (Sigma G7513).
(§7) During the amplification step and the assays adherent cells were rinsed with DPBS (Dulbecco's Phosphate Buffered Saline, Sigma D1283) three times and afterward treated for 5 minutes with trypsin ([0.5 g/ml]/EDTA [0.2 g/ml]) (Gibco-BRL, 15400054) in solution of DPBS at 37° C., and, once detached, transferred in the culturing medium. No-adherent cells were centrifuged and transferred in the culturing medium. Cells were counted in a Neubauer chamber after labelling with Tripan-Blue.
(§8) MTT: 1. Stock solution of MTT (475989 Calbiochem) was 5 mg/ml in PBS 1×. As negative control (experiment noise) 3 wells were treated with 20 μl/well of a solution of SDS 10% in H2O. The same control was used for Alamar Blue/Hexosaminidase. 10 μl/well of MTT solution were added and the plate was incubated for 3-4 hr. The medium was discarded and 100 μl of extracting buffer (PBS 1×, 15% SDS, 50% Na N,N-Dimethylformamide, pH 4.7) were added to each well. Plates were incubated for 16h at room temperature under orbital shaking. Absorbance at 570 nm was finally measured.
(§9) Alamar Blue: 10 μl Alamar Blue solution was added to each well and the plates were incubated for 4 in the incubator. Fluorescence ratio at 535/590 (excitation/emission) was measured in Cytofluor (Millipore) fluorimeter. Blank control was determined by lysis of untreated cells with con 2% of Triton X100, right before adding Alamar Blue solution.
(§10) Hexosaminidase activity test: after Alamar Blue lecture, medium was discarded and plates were rinsed once with PBS. 60 μl hexosaminidase substrate (p-nitrophenol-N-acetyl-beta-D-glucosamide 7.5 mM [Sigma N-9376], sodium citrate 0.1 M, pH 5.0, 0.25% Triton X-100) was added to each well and the plates were incubated at 37° C. for 2-5 h, according to the cell type (hexosaminidase activity changes according to the cell type). […] Blank control was the same as described before.
(§11) Data analysis was performed calculating the percentage of cell viability normalized vs. the values of negative control, which was considered equal to 100%. The dose/response curve was fitted through the sigmoidal equation dose-response (variable slope) and the ECK values were calculated as follow:
Y=Bottom+(Top-Bottom)/(1+10̂{[(LogEC50-X)*HillSlope]},

[3] = biological target: MCF-7, epithelial (breast cancer)
Description: MCF-7, epithelial (breast cancer), ECACC: 86012803
as §6, §7, §8, §9, §10, §11

[4] = system: HL-60, promyeloblast (acute myelocytic leukemia, AML)
Description: HL-60, promyeloblast (acute myelocytic leukemia, AML), ECACC: 98070106
as §6, §7, §8, §9, §10, §11

[5] = system: RPMI, lymphoblast (myeloma)
Description: RPMI, lymphoblast (myeloma), ATCC® CCL155™
Cell lines HL-60, RPMI and U266 were cultured in incubator at 37° C. in RPMI-1640 (Sigma R8758) medium with 10% of fetal bovine serum inactivated (FBS) and 2 mM glutamine (Sigma G7513).
as §7, §8, §9, §10, §11

[6] = system: NCl-H187, epithelial (small cell lung cancer, SCLC); test: Viability assay in NCl-H187; format: cell-based; conditions: H187 cell line, 48-72 h incubation
Description: NCl-H187, epithelial (small cell lung cancer, SCLC), ATCC-CRL-5804
(§2) Cell lines NCl-H82, NCl-H187 were cultured in incubator at 37° C. in RPMI-1640 (Sigma R8758) medium with 10% of fetal bovine serum inactivated (FBS) and 2 mM glutamine (Sigma G7513). Cell line NCl-H510A was cultured in incubator in F12K medium with 10% of fetal bovine serum inactivated (FBS).
(§3) During the amplification step and the assays adherent cells were rinsed with DPBS (Dulbecco's Phosphate Buffered Saline, Sigma D1283) three times and afterward treated for 5 minutes with trypsin ([…]) (Gibco-BRL, 15400054) in solution of DPBS at 37° C., and, once detached, transferred in the culturing medium. […] Cells were counted in a Neubauer chamber after labelling with Tripan-Blue. […]
as §1
(§4) MTT: 1. […] Absorbance at 570 nm was finally measured.
(§5) Alamar Blue: 10 μl Alamar Blue solution was added to each well and the plates were incubated for […] in the incubator. Fluorescence ratio at 535/590 (excitation/emission) was measured in Cytofluor (Millipore) fluorimeter. […]

[7] = system: NCl-H82, epithelial (small cell lung cancer, SCLC); test: Viability assay in NCl-H82; format: cell-based; conditions: H82 cell line, 48-72 h incubation
Description: NCl-H82, epithelial (small cell lung cancer, SCLC), ATCC-CRL-5811
as §2, §3, §1, §4, §5

[8] = system: NCl-H510A, epithelial (small cell lung cancer, SCLC); test: Viability assay in NCl-H510A; format: cell-based; conditions: H510A cell line, 48-72 h incubation
Description: NCl-510A, epithelial (small cell lung cancer, SCLC), ATCC-HBT-124
as §2, §3, §1, §4, §5

Compound | pEC50 [2] | pEC50 [3] | pEC50 [4] | pEC50 [5] | pEC50 [6] | pEC50 [7] | pEC50 [8] | anti-cancer activity in SCLC cell lines [1] | activity in RPMI cell lines ([5]; summary in words of Table 2)
CC[C@H](C)[C@H](NC(=O)[C@H](CCCCN)NC(=O)[C@@H](NC(=O)[C@H](CCC(N)=O)NC(=O)[C@@H](N)CCCNC(=N)N)[C@@H](C)CC)C(=O)N[C@@H](Cc1c[nH]c2ccccc12)C(=O)N[C@@H](Cc1ccccc1)C(=O)N[C@@H](CCC(N)=O)C(=O)N[C@@H](CC(N)=O)C(=O)N[C@@H](CCCNC(=N)N)C(=O)N[C@@H](CCCNC(=N)N)C(=O)N[C@@H](CCSC)C(=O)N[C@@H](CCCCN)C(=O)N[C@@H](Cc1c[nH]c2ccccc12)C(=O)N[C@@H](CCCCN)C(=O)N[C@@H](CCCCN)C(=O)N[C@@H](CO)C(=O)N[C@@H](CCCCN)C(=O)N[C@@H](C)C(=O)N1CCC[C@H]1C(=O)N[C@@H](CCCCN)C(=O)N[C@H](C(=O)N[C@H](C(=O)N[C@H](C(=O)N[C@@H](CC(C)C)C(=O)N[C@@H](CO)C(=O)N[C@@H](CCCCN)C(=O)N[C@@H](C)C(=O)N[C@@H](CC(C)C)C(=O)N[C@@H](CCC(=O)O)C(=O)N[C@@H](Cc1ccc(O)cc1)C(=O)N[C@@H](CC(C)C)C(=O)N[C@@H](CCC(N)=O)C(=O)N[C@@H](C)C(N)=O)[C@@H](C)CC)C(C)C)C(C)C [IDP-LLCb02] | – | – | – | – | – | – | – | showed anti-cancer activity | –
CC(C)C[C@H](NC(=O)[C@H](C)NC(=O)[C@H](CC(C)C)NC(=O)C1(C)CCCC=CCCCCCCC(C)(NC(=O)[C@H](CCCNC(=N)N)NC(=O)[C@H](CCCCN)NC(=O)[C@@H](N)CCCNC(=N)N)C(=O)N[C@@H](CC(N)=O)C(=O)N[C@@H](CC(=O)O)C(=O)N[C@@H](CC(C)C)C(=O)N[C@@H](CCCNC(=N)N)C(=O)N[C@@H](CO)C(=O)N[C@@H](CCCNC(=N)N)C(=O)N1)C(=O)N[C@@H](CCCNC(=N)N)C(=O)N[C@@H](CC(=O)O)C(=O)N[C@@H](CCC(N)=O)C(N)=O (stereo partly shown) [IDP-LS05, RKRXNDLRSRXLALRDQ] (H-RKR[X1]NDLRSR[ξαMeNle(6-ylidene)]LALRDQ-NH2; staple 4-11; N-terminus and C-terminus assumed) | < 4.00 | < 4.00 | ~5.30 | ~5.22 | – | – | – | – | –
CC(C)C[C@@H]1NC(=O)[C@H](C)NC(=O)[C@H](CC(C)C)NC(=O)[C@H](Cc2ccccc2)NC(=O)[C@H](CCCNC(=N)N)NC(=O)[C@H](CO)NC(=O)[C@](C)(NC(=O)[C@H](CC(C)C)NC(=O)[C@H](CC(=O)O)NC(=O)[C@H](CC(N)=O)NC(=O)[C@H](CCCNC(=N)N)NC(=O)[C@H](CCCNC(=N)N)NC(=O)[C@H](CCCCN)NC(=O)[C@@H](N)CCCNC(=N)N)CCCCCCC=CCCC[C@@](C)(C(=O)N[C@@H](CC(=O)O)C(=O)N[C@@H](CCC(N)=O)C(N)=O)NC1=O [IDP-LS13, RKRRNDLXSRFLALXDQ] (H-RKRRNDL[R8]SRFLAL[S5]DQ-NH2; staple 8-15; N-terminus and C-terminus assumed) | ~5.00 | ~5.00 | ~5.15 | ~5.05 | – | – | – | – | –
CC(C)C[C@@H]1NC(=O)[C@H](C)NC(=O)[C@H](CC(C)C)NC(=O)[C@H](Cc2ccccc2)NC(=O)C(C)(NC(=O)[C@H](CO)NC(=O)[C@H](CCCNC(=N)N)NC(=O)[C@H](CC(C)C)NC(=O)[C@H](CC(=O)O)NC(=O)[C@H](CC(N)=O)NC(=O)[C@H](CCCNC(=N)N)NC(=O)[C@H](CCCNC(=N)N)NC(=O)[C@H](CCCCN)NC(=O)[C@@H](N)CCCNC(=N)N)CCCCCCC=CCCCC(C)(C(N)=O)NC(=O)[C@H](CC(=O)O)NC(=O)[C@H](CCCNC(=N)N)NC1=O (stereo partly shown) [IDP-LS15, RKRRNDLRSXFLALRDX] (H-RKRRNDLRS[X1]FLALRD[ξαMeNle(6-ylidene)]-NH2; staple 10-17 (inferred); N-terminus and C-terminus assumed) | ~5.10 | < 4.00 | < 4.00 | ~5.15 | – | – | – | – | –
RRRRRRRSKAPKVVILSKALEYLQA-NH2 [IDP-LLCb01] | – | – | – | – | ~5.30 | ~5.60 | ~5.30 | showed anti-cancer activity | –

Second part, led by results:

pEC50 [2] | pEC50 [3] | pEC50 [4] | pEC50 [5] | pEC50 [6] | pEC50 [7] | pEC50 [8] | Compound | anti-cancer activity in SCLC cell lines [1] | activity in RPMI cell lines ([5]; summary in words of Table 2)
~5.00 | < 4.00 | < 4.00 | ~4.82 | – | – | – | CC(C)C[C@@H]1NC(=O)[C@H](C)NC(=O)[C@H](CCCCN)NC(=O)[C@H](CO)NC(=O)[C@H](CC(C)C)NC(=O)C(C)(NC(=O)[C@@H](NC(=O)[C@@H](NC(=O)[C@H](CCCCN)NC(=O)[C@@H]2CCCN2C(=O)[C@H](C)N)C(C)C)C(C)C)CCCCCCC=CCCCC(C)(C(=O)N[C@@H](CC(C)C)C(=O)N[C@@H](CCC(N)=O)C(=O)N[C@@H](C)C(N)=O)NC(=O)[C@H](CCC(=O)O)NC1=O (stereo partly shown) [IDP-LS16, APKVVXLSKALEXLQA] (H-APKVV[X1]LSKALE[ξαMeNle(6-ylidene)]LQA-NH2; staple 6-13; N-terminus and C-terminus assumed) | – | –
~4.80 | < 4.00 | < 4.00 | ~5.00 | – | – | – | CC[C@H](C)[C@H](NC(=O)[C@@H](NC(=O)[C@@H](NC(=O)[C@H](CCCCN)NC(=O)[C@@H]1CCCN1C(=O)[C@H](C)N)C(C)C)C(C)C)C(=O)N[C@@H](CC(C)C)C(=O)NC1(C)CCCCCCC=CCCCC(C)(C(=O)N[C@@H](C)C(N)=O)NC(=O)[C@H](CC(C)C)NC(=O)[C@H](Cc2ccc(O)cc2)NC(=O)[C@H](CCC(=O)O)NC(=O)[C@H](CC(C)C)NC(=O)[C@H](C)NC(=O)[C@H](CCCCN)NC1=O (stereo partly shown) [IDP-LS17, APKVVILXKALEYLXA] (H-APKVVIL[X1]KALEYL[ξαMeNle(6-ylidene)]A-NH2; staple 8-15 (inferred); N-terminus and C-terminus assumed) | – | –
< 4.00 | < 4.00 | < 4.00 | ~5.00 | – | – | – | RKRRNDLRSRFLALRDQ-NH2 (C-terminus assumed) [IDP-wtL05, Arg-Lys-Arg-Arg-Asn-Asp-Leu-Arg-Ser-Arg-Phe-Leu-Ala-Leu-Arg-Asp-Gln] | – | shows activity
< 4.00 | < 4.00 | < 4.00 | < 4.00 | – | – | – | RRRRRRRRKRRNDLRSRFLALRDQ-NH2 [IDP-intwtL05] | – | –
